Test results reported in PMC9618446 (Biomedicine & Pharmacotherapy, 2022).

How the values were obtained:
CXCL-10 = type: cell-based, human
IL-1β = type: cell-based, human
in vitro [1] = details: African green monkey
SARS-CoV-2 S PsV = test: microbe, parasite or virus in culture; type: cell-based
in vitro [2] = details: human
[3] = system: SARS-CoV-2 S protein-mediated cell-cell fusion; type: cell-based
[4] = system: SARS-CoV-2 (isolate Wuhan-Hu-1); test: microbe, parasite or virus in culture; type: cell-based; details: for IC50: Severe acute respiratory syndrome coronavirus 2, Vero C1008, 24 h, read-out: IC50 (half-maximal inhibitory concentration), anti-SARS-CoV-2 activity
papain-like protease = details: cited from earlier work
IL-6 = type: cell-based, human
3 C-like protease = details: cited from earlier work

SMILES | release of CXCL-10 from THP-1 cells (CXCL-10) | release of IL-1β from THP-1 cells (IL-1β) | CC50 (in vitro [1]) [µM] | CC50 (in vitro [2]) [µM] | SI: selectivity index as CC50/IC50 [4] | IC50 [4] [µM] | also measured
O=c1cc(-c2ccc(O)c(O)c2)oc2cc(O)cc(O)c12 [LU, Luteolin] | inhibited the release of CXCL-10 |  |  |  |  |  | 
Oc1ccc(/C=C/c2cc(O)cc(O)c2)cc1 [RE, Resveratrol] |  | inhibited the release of IL-1β |  |  |  |  | 
COc1c(O)cc2oc(-c3ccccc3)cc(=O)c2c1O [OA, Oroxylin A] | inhibited the release of both CXCL-10 and IL-1β | inhibited the release of both CXCL-10 and IL-1β | > 200 | > 400 | > 6.37 | 31.39 ± 0.07 | IC50 (SARS-CoV-2 S PsV; Severe acute respiratory syndrome coronavirus 2, read-out: IC50 against SARS-CoV-2 S PsV infection): 15 ± 1.46 µM; SARS-CoV-2 S protein-mediated cell-cell fusion (syncytium formation) [3]: significantly inhibited
O=C1C[C@@H](c2ccc(O)cc2)Oc2cc(O)cc(O)c21 [NA, Naringenin] | inhibited the release of CXCL-10 |  |  |  |  |  | 
COc1c(O)cc2occ(-c3ccc(O)cc3)c(=O)c2c1O [TE, Tectorigenin] | inhibited the release of both CXCL-10 and IL-1β | inhibited the release of both CXCL-10 and IL-1β |  |  |  |  | inhibition of SARS-CoV-2 infection [4]: approximately 48.31%
O=C(O)[C@H]1O[C@@H](Oc2cc3oc(-c4ccc(O)cc4)cc(=O)c3c(O)c2O)[C@H](O)[C@@H](O)[C@@H]1O [SC, Scutellarin] |  |  | > 200 | > 400 | > 8.90 | 22.47 ± 0.19 | inhibition of papain-like protease activity (papain-like protease): nor the activity of 3 C-like protease and papain-like protease; inhibitory activity against entry of SARS-CoV-2 S PsV (in words) (SARS-CoV-2 S PsV): inhibits neither the entry of SARS-CoV-2 S PsV; release of IL-6 from THP-1 cells (IL-6): except SC; inhibition of 3 C-like protease activity (3 C-like protease): nor the activity of 3 C-like protease and papain-like protease
COc1ccc([C@@H]2CC(=O)c3c(O)cc(O)cc3O2)cc1O [HE, Hesperetin] |  |  | > 200 | > 400 | > 4.00 | 50 ± 0.66 | 
O=C(/C=C/c1ccc(O)cc1)c1ccc(O)cc1O [IS, Isoliquiritigenin] | inhibited the release of both CXCL-10 and IL-1β | inhibited the release of both CXCL-10 and IL-1β |  |  |  |  | 
